The NIST ThermoML archive (doi:10.1021/acs.jced.6b00365)
Numbers after ± are expanded uncertainties.

Settings: dynamic light scattering

CCC(C)(C)OC [2-methoxy-2-methylbutane]
thermal diffusivity (291.5 K, Liquid): 6.65e-08 ± 2.1e-09 m2/s | thermal diffusivity (302.19 K, Liquid): 6.36e-08 ± 2e-09 m2/s | thermal diffusivity (312.11 K, Liquid): 6.17e-08 ± 1.9e-09 m2/s | thermal diffusivity (323 K, Liquid): 5.95e-08 ± 1.9e-09 m2/s | thermal diffusivity (332.51 K, Liquid): 5.75e-08 ± 1.8e-09 m2/s | thermal diffusivity (342.71 K, Liquid): 5.5e-08 ± 1.7e-09 m2/s | thermal diffusivity (352.32 K, Liquid): 5.33e-08 ± 1.7e-09 m2/s | thermal diffusivity (363.24 K, Liquid): 5.18e-08 ± 1.7e-09 m2/s | thermal diffusivity (373.1 K, 7000 kPa, Liquid): 5.35e-08 ± 1.7e-09 m2/s | thermal diffusivity (373.11 K, 4000 kPa, Liquid): 5.2e-08 ± 1.7e-09 m2/s | thermal diffusivity (373.12 K, 10000 kPa, Liquid): 5.47e-08 ± 1.7e-09 m2/s | thermal diffusivity (373.18 K, Liquid): 5e-08 ± 1.6e-09 m2/s | thermal diffusivity (382.8 K, 4000 kPa, Liquid): 5.08e-08 ± 1.6e-09 m2/s | thermal diffusivity (382.83 K, 7000 kPa, Liquid): 5.23e-08 ± 1.7e-09 m2/s | thermal diffusivity (382.92 K, Liquid): 4.84e-08 ± 1.6e-09 m2/s | thermal diffusivity (382.94 K, 10000 kPa, Liquid): 5.36e-08 ± 1.7e-09 m2/s | thermal diffusivity (388.1 K, Liquid): 4.75e-08 ± 1.5e-09 m2/s | thermal diffusivity (392.6 K, Liquid): 4.68e-08 ± 1.5e-09 m2/s | thermal diffusivity (392.61 K, 4000 kPa, Liquid): 4.9e-08 ± 1.6e-09 m2/s | thermal diffusivity (392.63 K, 7000 kPa, Liquid): 5.09e-08 ± 1.6e-09 m2/s | thermal diffusivity (392.73 K, 10000 kPa, Liquid): 5.23e-08 ± 1.7e-09 m2/s | thermal diffusivity (398.45 K, Liquid): 4.61e-08 ± 1.5e-09 m2/s | thermal diffusivity (402.72 K, 4000 kPa, Liquid): 4.77e-08 ± 1.5e-09 m2/s | thermal diffusivity (402.77 K, 7000 kPa, Liquid): 4.93e-08 ± 1.6e-09 m2/s | thermal diffusivity (402.81 K, 10000 kPa, Liquid): 5.07e-08 ± 1.6e-09 m2/s | thermal diffusivity (402.91 K, Liquid): 4.55e-08 ± 1.5e-09 m2/s | thermal diffusivity (412.73 K, 4000 kPa, Liquid): 4.66e-08 ± 1.5e-09 m2/s | thermal diffusivity (412.76 K, 7000 kPa, Liquid): 4.81e-08 ± 1.6e-09 m2/s | thermal diffusivity (412.86 K, 10000 kPa, Liquid): 4.94e-08 ± 1.6e-09 m2/s | thermal diffusivity (418.23 K, Liquid): 4.36e-08 ± 1.4e-09 m2/s | thermal diffusivity (422.87 K, 10000 kPa, Liquid): 4.82e-08 ± 1.6e-09 m2/s | thermal diffusivity (423 K, 4000 kPa, Liquid): 4.52e-08 ± 1.5e-09 m2/s | thermal diffusivity (423 K, Liquid): 4.3e-08 ± 1.4e-09 m2/s | thermal diffusivity (423.06 K, 7000 kPa, Liquid): 4.69e-08 ± 1.5e-09 m2/s | thermal diffusivity (428.55 K, Liquid): 4.24e-08 ± 1.4e-09 m2/s | thermal diffusivity (432.66 K, 4000 kPa, Liquid): 4.42e-08 ± 1.4e-09 m2/s | thermal diffusivity (432.76 K, 7000 kPa, Liquid): 4.59e-08 ± 1.5e-09 m2/s | thermal diffusivity (432.78 K, Liquid): 4.2e-08 ± 1.4e-09 m2/s | thermal diffusivity (432.8 K, 10000 kPa, Liquid): 4.72e-08 ± 1.5e-09 m2/s | thermal diffusivity (438.24 K, Liquid): 4.14e-08 ± 1.4e-09 m2/s | thermal diffusivity (442.61 K, 4000 kPa, Liquid): 4.31e-08 ± 1.4e-09 m2/s | thermal diffusivity (442.67 K, Liquid): 4.1e-08 ± 1.4e-09 m2/s | thermal diffusivity (442.7 K, 7000 kPa, Liquid): 4.47e-08 ± 1.5e-09 m2/s | thermal diffusivity (442.73 K, 10000 kPa, Liquid): 4.6e-08 ± 1.5e-09 m2/s | thermal diffusivity (448.19 K, Liquid): 4.04e-08 ± 1.3e-09 m2/s | thermal diffusivity (453.25 K, 10000 kPa, Liquid): 4.51e-08 ± 1.5e-09 m2/s | thermal diffusivity (453.47 K, 4000 kPa, Liquid): 4.2e-08 ± 1.4e-09 m2/s | thermal diffusivity (453.53 K, Liquid): 3.98e-08 ± 1.3e-09 m2/s | thermal diffusivity (453.58 K, 7000 kPa, Liquid): 4.37e-08 ± 1.4e-09 m2/s | thermal diffusivity (458.62 K, Liquid): 3.95e-08 ± 1.3e-09 m2/s | thermal diffusivity (463.14 K, 4000 kPa, Liquid): 4.14e-08 ± 1.4e-09 m2/s | thermal diffusivity (463.21 K, 7000 kPa, Liquid): 4.31e-08 ± 1.4e-09 m2/s | thermal diffusivity (463.25 K, 10000 kPa, Liquid): 4.44e-08 ± 1.5e-09 m2/s | thermal diffusivity (463.3 K, Liquid): 3.9e-08 ± 1.3e-09 m2/s | thermal diffusivity (468.1 K, Liquid): 3.87e-08 ± 1.3e-09 m2/s | thermal diffusivity (472 K, Liquid): 3.83e-08 ± 1.3e-09 m2/s | thermal diffusivity (472.15 K, 4000 kPa, Liquid): 4.08e-08 ± 1.4e-09 m2/s | thermal diffusivity (472.25 K, 7000 kPa, Liquid): 4.26e-08 ± 1.4e-09 m2/s | thermal diffusivity (472.35 K, 10000 kPa, Liquid): 4.39e-08 ± 1.4e-09 m2/s | thermal diffusivity (477.88 K, Gas): 2.54e-07 m2/s | thermal diffusivity (478.13 K, 10000 kPa, Liquid): 4.36e-08 ± 1.4e-09 m2/s | thermal diffusivity (478.14 K, 7000 kPa, Liquid): 4.22e-08 ± 1.4e-09 m2/s | thermal diffusivity (478.34 K, Liquid): 3.81e-08 ± 1.3e-09 m2/s | thermal diffusivity (478.39 K, 4000 kPa, Liquid): 4.06e-08 ± 1.4e-09 m2/s | thermal diffusivity (482.92 K, Liquid): 3.78e-08 ± 1.3e-09 m2/s | thermal diffusivity (483.16 K, 7000 kPa, Liquid): 4.19e-08 ± 1.4e-09 m2/s | thermal diffusivity (483.16 K, 10000 kPa, Liquid): 4.32e-08 ± 1.4e-09 m2/s | thermal diffusivity (483.31 K, 4000 kPa, Liquid): 4.02e-08 ± 1.3e-09 m2/s | thermal diffusivity (483.74 K, Gas): 2.3e-07 m2/s | thermal diffusivity (487.65 K, Gas): 2.13e-07 m2/s | thermal diffusivity (488.17 K, 7000 kPa, Liquid): 4.16e-08 ± 1.4e-09 m2/s | thermal diffusivity (488.18 K, 10000 kPa, Liquid): 4.29e-08 ± 1.4e-09 m2/s | thermal diffusivity (488.23 K, Liquid): 3.75e-08 ± 1.3e-09 m2/s | thermal diffusivity (488.54 K, 4000 kPa, Liquid): 3.98e-08 ± 1.3e-09 m2/s | thermal diffusivity (492.26 K, Liquid): 3.71e-08 ± 1.3e-09 m2/s | thermal diffusivity (492.58 K, 4000 kPa, Liquid): 3.96e-08 ± 1.3e-09 m2/s | thermal diffusivity (493.04 K, Gas): 1.9e-07 m2/s | thermal diffusivity (493.13 K, 7000 kPa, Liquid): 4.13e-08 ± 1.4e-09 m2/s | thermal diffusivity (493.14 K, 10000 kPa, Liquid): 4.26e-08 ± 1.4e-09 m2/s | thermal diffusivity (498.16 K, 10000 kPa, Liquid): 4.22e-08 ± 1.4e-09 m2/s | thermal diffusivity (498.25 K, 7000 kPa, Liquid): 4.08e-08 ± 1.4e-09 m2/s | thermal diffusivity (498.77 K, Liquid): 3.63e-08 ± 1.2e-09 m2/s | thermal diffusivity (499 K, 4000 kPa, Liquid): 3.9e-08 ± 1.3e-09 m2/s | thermal diffusivity (499.05 K, Gas): 1.63e-07 m2/s | thermal diffusivity (501.9 K, Liquid): 3.6e-08 ± 1.2e-09 m2/s | thermal diffusivity (502.72 K, Gas): 1.45e-07 m2/s | thermal diffusivity (503.15 K, 10000 kPa, Liquid): 4.18e-08 ± 1.4e-09 m2/s | thermal diffusivity (503.16 K, 4000 kPa, Liquid): 3.85e-08 ± 1.3e-09 m2/s | thermal diffusivity (503.2 K, 7000 kPa, Liquid): 4.04e-08 ± 1.3e-09 m2/s | thermal diffusivity (504.05 K, Liquid): 3.58e-08 ± 1.2e-09 m2/s | thermal diffusivity (506.94 K, Liquid): 3.52e-08 ± 1.2e-09 m2/s | thermal diffusivity (508.09 K, 7000 kPa, Liquid): 3.99e-08 ± 1.3e-09 m2/s | thermal diffusivity (508.14 K, 10000 kPa, Liquid): 4.15e-08 ± 1.4e-09 m2/s | thermal diffusivity (508.18 K, Gas): 1.21e-07 m2/s | thermal diffusivity (508.25 K, 4000 kPa, Liquid): 3.8e-08 ± 1.3e-09 m2/s | thermal diffusivity (508.48 K, Liquid): 3.51e-08 ± 1.2e-09 m2/s | thermal diffusivity (511.05 K, Liquid): 3.42e-08 ± 1.2e-09 m2/s | thermal diffusivity (511.38 K, Gas): 1.05e-07 m2/s | thermal diffusivity (512.28 K, 4000 kPa, Liquid): 3.72e-08 ± 1.3e-09 m2/s | thermal diffusivity (512.29 K, 7000 kPa, Liquid): 3.94e-08 ± 1.3e-09 m2/s | thermal diffusivity (512.53 K, 10000 kPa, Liquid): 4.12e-08 ± 1.4e-09 m2/s | thermal diffusivity (514.02 K, Liquid): 3.36e-08 ± 1.2e-09 m2/s | thermal diffusivity (517.41 K, Gas): 7.83e-08 m2/s | thermal diffusivity (517.73 K, Liquid): 3.2e-08 ± 1.1e-09 m2/s | thermal diffusivity (517.79 K, 4000 kPa, Liquid): 3.63e-08 ± 1.2e-09 m2/s | thermal diffusivity (517.85 K, 7000 kPa, Liquid): 3.9e-08 ± 1.3e-09 m2/s | thermal diffusivity (518.05 K, 10000 kPa, Liquid): 4.08e-08 ± 1.4e-09 m2/s | thermal diffusivity (519.01 K, Liquid): 3.15e-08 ± 1.1e-09 m2/s | thermal diffusivity (522.19 K, Liquid): 2.98e-08 ± 1.1e-09 m2/s | thermal diffusivity (522.45 K, Gas): 4.2e-08 m2/s | thermal diffusivity (523.25 K, 4000 kPa, Liquid): 3.53e-08 ± 1.2e-09 m2/s | thermal diffusivity (523.25 K, 7000 kPa, Liquid): 3.84e-08 ± 1.3e-09 m2/s | thermal diffusivity (523.25 K, 10000 kPa, Liquid): 4.05e-08 ± 1.3e-09 m2/s

Cc1ccccc1 [toluene]
thermal diffusivity (302.9 K, Liquid): 8.63e-08 ± 2.6e-09 m2/s | thermal diffusivity (312.45 K, Liquid): 8.33e-08 ± 2.5e-09 m2/s | thermal diffusivity (323.07 K, Liquid): 8.03e-08 ± 2.4e-09 m2/s | thermal diffusivity (333.27 K, Liquid): 7.77e-08 ± 2.4e-09 m2/s | thermal diffusivity (343.52 K, Liquid): 7.52e-08 ± 2.3e-09 m2/s | thermal diffusivity (353.73 K, Liquid): 7.3e-08 ± 2.2e-09 m2/s | thermal diffusivity (363.73 K, Liquid): 7.09e-08 ± 2.2e-09 m2/s | thermal diffusivity (373.04 K, Liquid): 6.9e-08 ± 2.1e-09 m2/s | thermal diffusivity (382.94 K, Liquid): 6.71e-08 ± 2.1e-09 m2/s | thermal diffusivity (392.88 K, Liquid): 6.52e-08 ± 2e-09 m2/s | thermal diffusivity (402.93 K, Liquid): 6.33e-08 ± 2e-09 m2/s | thermal diffusivity (413.06 K, Liquid): 6.15e-08 ± 1.9e-09 m2/s | thermal diffusivity (422.73 K, Liquid): 5.98e-08 ± 1.9e-09 m2/s | thermal diffusivity (432.67 K, Liquid): 5.81e-08 ± 1.8e-09 m2/s | thermal diffusivity (442.68 K, Liquid): 5.64e-08 ± 1.8e-09 m2/s | thermal diffusivity (452.96 K, Liquid): 5.48e-08 ± 1.7e-09 m2/s | thermal diffusivity (462.99 K, Liquid): 5.33e-08 ± 1.7e-09 m2/s | thermal diffusivity (473.2 K, Liquid): 5.19e-08 ± 1.7e-09 m2/s | thermal diffusivity (482.98 K, Liquid): 5.06e-08 ± 1.6e-09 m2/s | thermal diffusivity (493.05 K, Liquid): 4.94e-08 ± 1.6e-09 m2/s | thermal diffusivity (503.17 K, Liquid): 4.84e-08 ± 1.6e-09 m2/s | thermal diffusivity (513.41 K, Liquid): 4.74e-08 ± 1.5e-09 m2/s | thermal diffusivity (523.38 K, Liquid): 4.66e-08 ± 1.5e-09 m2/s
